# Experimental data: patent US20060252823A1, “Isocoumarin-based inhibitors of urokinase-type plasminogen activator” (priority 2005, published 2006)
# Counter-ions that a name gives are not always drawn.
# What was measured:
# [1] = target: T1, Human urokinase (Homo sapiens, UniProt P00749); assay: Kinetics of human urokinase inhibition with Spectrozyme UK substrate; type: biochemical; details: for binding to uPA compared to unsubstituted counterparts: qualitative comparison of dissociation constants (Table 1); for fold improvement of Ki over 4d: compared to unsubstituted compound 4d; for Ki: human uPA, 0.1M Tris pH 8.8, 25° C., initial rate data
# T1 construct: purchased Sigma/Aldrich
# Method: Human urokinase (Sigma/Aldrich, St. Louis, Mo.) and Spectrozyme UK (American Diagnostica, Stamford, Conn.) were used for the kinetic studies. Enzyme activity was routinely measured in 1 ml volumes of 0.1M Tris, pH 8.8, Spectrozyme UK (10 μM to 150 μM) and 0.64 μg (3,770 units/mg protein) human urokinase. Reactions were monitored at 405 nm, 25° C., with a Perkin/Elmer Lambda S2 UV/vis spectrophotometer. Michaelis constants and Ki values were determined from initial rate data, measured at 8 to 10 substrate concentrations, by non-linear regression analysis with SigmaPlot's Enzyme Kinetics Module™ (Chicago, Ill., USA).
Compound,melting point,binding to uPA compared to unsubstituted counterparts [1],other results
"O=c1oc(OCCBr)c(Cl)c2ccc([N+](=O)[O-])cc12 [Compound 4a, 3-(2-Bromoethoxy)-4-chloro-7-nitroisocoumarin]",126 to 128 °C,improved binding,–
"O=c1oc(OCCCBr)c(Cl)c2ccc([N+](=O)[O-])cc12 [Compound 4b, 3-(3-Bromopropoxy)-4-chloro-7-nitroisocoumarin]",131 to 134 °C,improved binding,fold improvement of Ki over 4d [1]: 8 fold; Ki [1]: 1200 nM
"O=c1oc(OCCBr)c(Cl)c2ccccc12 [Compound 4c, 3-(2-Bromoethoxy)-4-chloroisocoumarin]",81 to 82 °C,–,–
"O=c1oc(OCCCBr)c(Cl)c2ccccc12 [Compound 4d, 3-(3-Bromopropoxy)-4-chloroisocoumarin]",95 to 97 °C,–,type of inhibition of uPA [1]: simple competitive inhibition with no evidence of rapid inactivation; Ki [1]: 9000 nM
"O=c1oc(OCCCCBr)c(Cl)c2ccccc12 [Compound 4e, 3-(4-Bromobutoxy)4-chloroisocoumarin]",75 to 77 °C,–,–
"Br.N=C(S)NCCOc1oc(=O)c2ccccc2c1Cl [Compound 5c, 4-Chloro-3-(2-isothioureidoethoxy)isocoumarin hydrobromide]",168 to 170 °C,–,–
"N=C(N)SCCOc1oc(=O)c2ccccc2c1Cl [Compound 5c, 4-Chloro-3-(2-isothioureidoethoxy)isocoumarin hydrobromide]",–,–,Ki [1]: 27 nM
"Br.NC(S)=NCCCOc1oc(=O)c2ccccc2c1Cl [Compound 5d, 4-Chloro-3-(3-isothioureidopropoxy)isocoumarin hydrobromide]",159 to 163 °C,–,–
"Br.N=C(S)NCCCCOc1oc(=O)c2ccccc2c1Cl [Compound 5e, 4-Chloro-3-(4-isothioureidobutoxy)isocoumarin hydrobromide]",159 to 161 °C,–,–
"Nc1ccc2c(Cl)c(OCCBr)oc(=O)c2c1 [Compound 6a, 7-Amino-3-(2-bromoethoxy)4-chloroisocoumarin]",134 to 136 °C,–,–
"Nc1ccc2c(Cl)c(OCCCBr)oc(=O)c2c1 [Compound 6b, 7-Amino-3-(3-bromopropoxy)-4-chloroisocoumarin]",106 to 107 °C,–,–
"Br.NC(S)=NCCCOc1cc2ccc(N)cc2c(=O)o1 [Compound 7b, 7-Amino-3-(3-isothioureidopropoxy)isocoumarin hydrobromide]",173 °C,–,–
"Br.NC(S)=NCCCOc1oc(=O)c2cc(NC(=O)c3ccccc3)ccc2c1Cl [Compound 9b, 7-Benzamido-4-chloro-3-(3-isothioureidopropoxy)isocoumarin hydrobromide]",203 to 204 °C,did not exhibit any significant improvement in binding,–
"Nc1ccc2cc(OCCBr)oc(=O)c2c1 [Compound 11, 7-Amino-3-(2-bromoethoxy)isocoumarin]",> 280 °C,–,–

# Second part, led by results:
melting point,binding to uPA compared to unsubstituted counterparts [1],Compound,other results
214 to 216 °C,markedly improved binding,"O=C(Nc1ccc2c(Cl)c(OCCBr)oc(=O)c2c1)c1ccccc1 [Compound 8a, 7-Benzamido-3-(2-bromoethoxy)-4-chloroisocoumarin]",–
193 to 194 °C,markedly improved binding,"O=C(Nc1ccc2c(Cl)c(OCCCBr)oc(=O)c2c1)c1ccccc1 [Compound 8b, 7-Benzamido-3-(3-bromopropoxy)-4-chloroisocoumarin]",fold improvement of Ki over 4d [1]: 300 fold; Ki [1]: 34 nM; dissociation constant ([1]; in words): low nanomolar range
173 to 175 °C,–,"Br.N=C(S)NCCOc1oc(=O)c2cc(NC(=O)c3ccccc3)ccc2c1Cl [Compound 9a, 7-Benzamido-4-chloro-3-(2-isothioureidoethoxy)isocoumarin hydrobromide]",–
95 to 97 °C,–,"O=c1oc(OCCBr)cc2ccc([N+](=O)[O-])cc12 [Compound 10a, 3-(2-Bromoethoxy)-7-nitroisocoumarin]",–
112 to 113 °C,–,"O=c1oc(OCCCBr)cc2ccc([N+](=O)[O-])cc12 [Compound 10b, 3-(3-Bromopropoxy)-7-nitroisocoumarin]",–
–,did not show improved binding,"O=C(c1c(OCCCBr)oc(=O)c2ccccc12)C(F)(F)F [Compound 10c, 3-(3-Bromopropoxy)-4-trifluoroacetylisocoumarin]",–
